Source: patent publication US20260335323A1, “CHIMERIC MOLECULE” (UCL Business Ltd, priority 2023, published 2026)

Legend:
Type in all cases: cell-based, human
[1] = system: phospho-CHK1 (S345); test: Western blot, phospho-CHK1 in RPE1-hTERT-cMYC-ER cells (replication stress); details: 72 h; NZ-175 at 100 nM with 4-OHT
Experimental: (§1) FIG. 15. NZ-175 rescues oncogenic c-MYC induced replication stress (100 nM, 72 h) (A) Western blot of RPE1-hTERT-cMYC-ER treated with 4-OHT and/or NZ-175 at 100 nM for 72 hours. 4-OHT treatment simulates oncogenic c-MYC-induced replication stress, observed by upregulation of phospho-CHK1 (S345), pRPA (S4/S8) and γH2AX. […] Quantification of blot is shown for pCHK1 […] (B), pRPA (S4/S8) (C), and YH2AX (D). n=3, mean±SEM, *p<0.05, ** p<0.01, *** p<0.001.
(§2) Cells were homogenised in protein lysis buffer consisting of 0.1 M Tris pH 8.0, 0.1 M NaCl, 5% glycerol, IGEPAL® CA-630 (#18896. Sigma-Aldrich) and 5 mM EDTA, 0.1 M N-ethyl maleimide (ThermoFisher, #23030) and protease inhibitor (Cell Signalling Technologies, #5871). Protein concentrations were determined using the BCA assay to ensure equal loading. […] The membranes were immunoblotted with primary antibodies, overnight at 4° C. […]
(§3) Membranes were then incubated with horseradish peroxidase (HRP)-conjugated secondary antibodies (Rabbit #7074 and Mouse #7076) purchased from Cell Signalling Technologies for 1 hour and the HRP signal was detected using EZ-ECL Enhanced Chemiluminescence Detection Kit for HRP (#20-500-500, Sartorius), and imaged with an Alliance Q9 Advanced (UVITec). […]
(§4) To see if NZ-175 could rescue this phenotype, RPE1-hTERT-cMYC-ER cells treated with 4-OHT and/or 100 nM NZ-175 for 72 h were analysed by Western blotting (FIG. 15A). […]

[2] = system: MAX; test: Western blot, MAX in RPE1-hTERT-cMYC-ER cells; details: 100 nM, 72 h, 4-OHT and/or compound
Experimental: (§5) FIG. 12. c-MYC and MAX degradation enabled by NZ-175. (A) Schematic representation of hTERT-cMYC-ER expressing RPE1 cells. Treatment with 4-hydroxytamoxifen (4-OHT) translocates c-MYC-ER from the cytoplasm into the nucleus, simulating oncogenic c-MYC. (B) Western blot of RPE1-hTERT-cMYC-ER treated with 4-OHT and/or 100 nM NZ-175 for 72 hours. Quantification of c-MYC-ER (C), c-MYC (D) and MAX (E).
as §2, §3
(§6) RPE1-hTERT-cMYC-ER cells were treated with 4-OHT and/or 100 nM NZ-175 for 72 h and analysed by Western blotting (FIG. 12A). The levels of c-MYC-ER (FIG. 12B), c-MYC (FIG. 12C) and MAX (FIG. 12D) were quantified.

[3] = system: A549 cells; test: Colony formation assay, A549; details: A549, 100 nM, 72 hours
Experimental: (§7) A549 and H1299 cells were seeded in 12 well plates at approximately 100 cells per well. In Example 8, wells were treated with DMSO, (+)-JQ1 or NZ-147. In Example 9, cells were treated with DMSO or NZ-175. Colonies were allowed to form over 120 h. Cells were fixed and stained with crystal violet staining solution, prepared in 70% ethanol.
(§8) A colony formation assay was performed in A549 and H1299 cells, which were treated with DMSO, (+)-JQ1 or NZ-147 at 100 nM for 72 hours and stained with crystal violet (FIG. 10A).
(§9) A colony formation assay was performed in A549 and H1299 cells, which were treated with DMSO or NZ-175 at 100 nM for 72 hours and stained with crystal violet (FIG. 16A).

[4] = system: c-MYC; test: c-MYC immunofluorescence in hTERT-cMYC-ER expressing RPE1 cells; details: 100 nM, 72 hours, 4-OHT and/or compound
Experimental: FIG. 9. (A) Schematic representation of hTERT-cMYC-ER expressing RPE1 cells. Treatment with 4-hydroxytamoxifen (4-OHT) translocates c-MYC-ER from the cytoplasm into the nucleus, simulating oncogenic c-MYC. (B) Immunofluorescence images of hTERT-cMYC-ER expressing RPE1 cells treated with DMSO, (+)-JQ1 or NZ-147 at 100 nM for 72 hours, each with or without 4-OHT.
RPE1-hTERT-c-MYC-ER cells were seeded in a 384 well PerkinElmer CellCarrier Ultra plate. In Example 8, cells were treated for 72 hours with DMSO, (+)-JQ1±4-OHT, or, NZ-147±4-OHT. In Example 9, cells were treated for 72 hours with 4-OHT, NZ-175, both, or neither. Thereafter, in both Examples 8 and 9, cells were fixed with 4% paraformaldehyde (PFA) in phosphate buffered saline (PBS) and blocked with 10% FBS and 0.1% Triton in PBS. Plates were incubated at 4° C. overnight, with 1:500 rabbit anti-c-MYC (D84C12) rabbit monoclonal antibody (#5605, Cell Signalling Technologies). The following day, plates were incubated with 1:1000 goat anti-rabbit Alexa 488 (ThermoFisher Scientific, #A-11008) and 1.62 μM Hoechst 33342 at room temperature for 1 hour before imaging. Excitation and emission spectra for each channel are as follows: Hoechst 33342=405/435-480 nm, Alexa 488=488/500-550 nm. Images were acquired at 40× and 63× magnification with water immersion lens.

[5] = system: c-MYC; test: Western blot, c-MYC in RPE1-hTERT-cMYC-ER cells; details: 100 nM, 72 h, 4-OHT and/or compound
Experimental: as §5, §2, §3, §6

[6] = system: H1299 cells; test: Colony formation assay, H1299; details: H1299, 100 nM, 72 hours
Experimental: as §7, §8, §9

[7] = system: pRPA (S4/S8); test: Western blot, pRPA (S4/S8) in RPE1-hTERT-cMYC-ER cells (replication stress); details: 72 h; NZ-175 at 100 nM with 4-OHT
Experimental: as §1, §2, §3, §4

[8] = system: γH2AX; test: Western blot, γH2AX in RPE1-hTERT-cMYC-ER cells (replication stress); details: 72 h; NZ-175 at 100 nM with 4-OHT
Experimental: as §1, §2, §3, §4

## C/C=C/C(=O)NCc1ccc(C(=O)Nc2ccccc2Oc2ccc(OCC(=O)NCCOCCOCCOCCn3cc(COc4ccc([C@@H](NC(=O)Nc5cc(C(F)(F)F)cc(C(F)(F)F)c5)C(=O)Nc5ccc(F)cc5F)cc4)nn3)cc2)cc1 [NZ-175, (R)-4-(crotonylamidomethyl)-N-(2-(4-((14-(4-((4-(1-(3-(3,5-bis(trifluoromethyl)phenyl)ureido)-2-((2,4-difluorophenyl)amino)-2-oxoethyl)phenoxy)methyl)-1H-1,2,3-triazol-1-yl)-2-oxo-6,9,12-trioxa-3-azatetradecyl)oxy)phenoxy)phenyl) benzamide]
[1]
  phospho-CHK1 (S345), replication stress: rescues this phenotype
[2]
  degradation of MAX: proximal degradation of MAX
[3]
  colony formation: Fewer colonies formed
[4]
  c-MYC degradation (time-course immunofluorescence): c-MYC degradation
[5]
  degradation of c-MYC: initiates degradation of c-MYC
[6]
  colony formation: Fewer colonies formed
[7]
  pRPA (S4/S8), replication stress: rescues this phenotype
[8]
  γH2AX, replication stress: rescues this phenotype
